Columns and labels:
[1] = system: Lipid Peroxidation (brain homogenate auto-oxidation); experiment: Brain homogenate auto-oxidation test (lipid peroxide production inhibition, thiobarbituric acid method); assay type: biochemical; settings: for IC50: value in parentheses, read-out: Inhibitory Activities on Lipid Peroxidation IC50
Description: [formula] Moreover, f: Purity of reference standard (%)/100 6) Brain Homogenate Auto-oxidation Test
Determined via a thiobarbituric acid method that was based on the method of Ohkawa, et al. (Reference Document 2)

[2] = 1,1-Diphenyl-2-picrylhydrazyl (DPPH) radical scavenging test; settings: for EC50: value in parentheses, read-out: DPPH Radical Scavenging Activities EC50
Description: 7) 1,1-Diphenyl-2-picrylhydrazyl (DPPH) Radical Scavenging Test
Determined based on the method of Blois, et al. (Reference Document 3)

[3] = system: blood glucose level after maltose-loading; experiment: Hyperglycemic inhibitory action after maltose-loading in rat; assay type: in vivo, SD (IGS) rat; settings: for ΔAUC of blood glucose / ΔCmax of blood glucose: maltose 1 g/kg gavage
Description: • 1) Test Substance: With regard to TCAA, Yacon hot water extract was passed through an HP-20 column chromatograph, then eluted with water, and finally eluted with 50% methanol to obtain a polyphenol fraction. This fraction was separated by being passed through a Sephadex LH-20, and eluted with 40% methanol/water, so that the total amount of TCAA contained therein was recovered during confirmation of TCAA with HPLC. Then, the rough TCAA fraction was passed through a HW-40 column chromatograph, separated with 40% methanol/water during confirmation of TCAA with HPLC in a similar manner, and components other than TCAA were removed. […] Moreover, the maltose employed was purchased from Wako Pure Chemical Industries, Ltd. • 2) Animals: One group of five SD (IGS) 7 week old male rats was employed. 2. Experimental Method • 1) Configuration of the Treatment Group • (1) Control Group (Maltose Only) • (2) Maltose+TCAA (600 mg/kg×2) • (3) Maltose+TCAA (300 mg/kg×2) • (4) Maltose+TCAA (150 mg/kg×2) • 2) Preparation of Test Substance
Maltose was weighed to an amount of 1.5 g, dissolved in 15 ml of distilled water, and administered by gavage at a dosage of 1 g/10 ml/kg. Then TCAA was administered in two doses, a first dosage in which it was administered in a maltose solution, and then a second dosage in which it was dissolved in distilled water, with both dosages being at ratios of 150 mg/10 ml, 300 mg/10 ml, and 600 mg/10 ml, respectively, and administration thereof by gavage at a dosage of 10 ml/kg.
After blood samples were collected from rats that fasted for 17 hours prior to administration of the test substance (0 time), the test substance was administered. Fifteen minutes later the second dosage was administered, with blood samples being taken soon thereafter (specifically, 15 minutes later), 30 minutes thereafter, 45 minutes thereafter, 60 minutes thereafter, 90 minutes thereafter, and 120 minutes thereafter, respectively, and then blood glucose levels being measured with a Glucocard (Aventis Pharma, Limited).
When measuring blood glucose levels at the times that each of the samples were collected, the change in blood glucose (A) was calculated by subtracting the blood glucose level prior to the administration (0 time) from the blood glucose levels after the administration of the test substance, and determining the maximum serum concentration (ΔCMAX) and area under the blood glucose curve (ΔAUC).
The blood glucose values obtained by the present experiment were averaged, the standard error of the mean was calculated, and a two-group comparison was made with the control group. The statistical test method was via the Bartlett method, with the variance of the measured values being statistically verified within a 95% confidence limit, and the Student's t-test only being conducted in cases of equal variance, to determine that p<0.05 was a statistically significant change.

α-amylase = experiment: Glycosidase inhibitory activity test, amylase; assay type: biochemical
Description: (§1) 8) Glycosidase Inhibitory Activity Test
(§2) Determined via a method whereby α-amylase, maltase, and sucrase inhibitory activities were all disclosed in the abovementioned report (Non-Patent Document 1).

sucrase = sucrase (Homo sapiens, UniProt P14410); experiment: Glycosidase inhibitory activity test, sucrase; assay type: biochemical
Sequence of sucrase (P14410 whole entry, species assumed): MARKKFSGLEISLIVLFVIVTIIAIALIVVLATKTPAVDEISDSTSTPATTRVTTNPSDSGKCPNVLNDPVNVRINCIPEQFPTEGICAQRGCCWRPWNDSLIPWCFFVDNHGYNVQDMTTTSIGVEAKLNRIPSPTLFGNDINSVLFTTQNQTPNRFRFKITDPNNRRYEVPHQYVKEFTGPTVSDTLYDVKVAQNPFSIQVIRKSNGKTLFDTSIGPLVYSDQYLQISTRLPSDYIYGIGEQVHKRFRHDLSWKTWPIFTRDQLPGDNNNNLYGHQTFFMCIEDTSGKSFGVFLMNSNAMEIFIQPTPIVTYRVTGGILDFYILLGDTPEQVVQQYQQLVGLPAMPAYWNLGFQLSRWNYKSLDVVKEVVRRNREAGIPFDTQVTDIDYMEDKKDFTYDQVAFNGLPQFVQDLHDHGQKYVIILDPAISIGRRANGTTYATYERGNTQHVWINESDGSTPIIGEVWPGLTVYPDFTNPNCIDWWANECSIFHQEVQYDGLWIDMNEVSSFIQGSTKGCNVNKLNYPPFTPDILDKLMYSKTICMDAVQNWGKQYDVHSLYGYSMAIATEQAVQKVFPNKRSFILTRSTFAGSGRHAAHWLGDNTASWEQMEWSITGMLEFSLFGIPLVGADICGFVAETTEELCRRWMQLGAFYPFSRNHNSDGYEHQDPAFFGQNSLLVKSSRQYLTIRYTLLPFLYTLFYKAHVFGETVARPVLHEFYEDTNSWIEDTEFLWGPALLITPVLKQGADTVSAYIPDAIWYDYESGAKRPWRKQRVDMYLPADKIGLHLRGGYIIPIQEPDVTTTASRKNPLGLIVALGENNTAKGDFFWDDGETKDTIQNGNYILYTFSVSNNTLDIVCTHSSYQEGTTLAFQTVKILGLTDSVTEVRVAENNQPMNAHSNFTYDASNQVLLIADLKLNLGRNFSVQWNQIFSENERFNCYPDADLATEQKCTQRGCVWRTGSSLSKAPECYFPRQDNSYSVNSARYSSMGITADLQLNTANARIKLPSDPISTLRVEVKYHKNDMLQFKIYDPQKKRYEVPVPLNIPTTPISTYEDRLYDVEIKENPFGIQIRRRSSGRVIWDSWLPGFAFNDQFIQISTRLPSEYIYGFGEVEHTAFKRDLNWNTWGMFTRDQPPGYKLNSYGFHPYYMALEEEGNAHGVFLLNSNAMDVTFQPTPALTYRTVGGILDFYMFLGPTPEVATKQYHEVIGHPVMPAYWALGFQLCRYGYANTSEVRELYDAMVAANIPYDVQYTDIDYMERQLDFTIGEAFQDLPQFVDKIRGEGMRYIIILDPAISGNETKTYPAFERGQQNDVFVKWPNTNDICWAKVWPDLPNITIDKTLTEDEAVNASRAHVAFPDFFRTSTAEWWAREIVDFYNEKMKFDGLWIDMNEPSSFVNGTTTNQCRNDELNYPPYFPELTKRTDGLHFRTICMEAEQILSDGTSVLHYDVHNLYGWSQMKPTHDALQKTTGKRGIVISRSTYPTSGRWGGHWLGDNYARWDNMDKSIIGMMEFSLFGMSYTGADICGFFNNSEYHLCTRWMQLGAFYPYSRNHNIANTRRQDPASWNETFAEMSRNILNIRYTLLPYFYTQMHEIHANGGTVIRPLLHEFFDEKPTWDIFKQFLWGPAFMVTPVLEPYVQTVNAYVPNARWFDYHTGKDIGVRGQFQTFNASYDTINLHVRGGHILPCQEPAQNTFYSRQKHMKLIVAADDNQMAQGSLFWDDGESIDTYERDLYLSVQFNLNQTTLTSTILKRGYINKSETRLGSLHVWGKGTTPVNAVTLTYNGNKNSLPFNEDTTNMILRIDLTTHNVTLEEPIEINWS
Description: as §1, §2

maltase = experiment: Glycosidase inhibitory activity test, maltase; assay type: biochemical
Description: as §1, §2

[4] = TCAA 150 mg/kg × 2, mean ± SE, n = 5
[5] = TCAA 300 mg/kg × 2, mean ± SE, n = 5
[6] = comparative molar concentrations

Compound	Inhibitory Activities on Lipid Peroxidation IC50 [1]	IC50 [1]	DPPH Radical Scavenging Activities EC50 [2]	EC50 [2]	further results
O=C(/C=C/c1ccc(O)c(O)c1)O[C@H]1[C@H](O)C[C@](O)(C(=O)O)C[C@H]1OC(=O)/C=C/c1ccc(O)c(O)c1 [4,5-DCQA]	3.38 µg/mL	6.55 µM	0.89 µg/mL	1.72 µM	
(±)-catechin	13.69 µg/mL	47.2 µM	1.56 µg/mL	5.37 µM	
Cc1c(C)c2c(c(C)c1O)CC[C@@](C)(CCC[C@H](C)CCC[C@H](C)CCCC(C)C)O2 [α-tocopherol]	71.24 µg/mL	166 µM	5.65 µg/mL	13.1 µM	
O=C(O)/C=C/c1ccc(O)c(O)c1 [caffeic acid]	9.97 µg/mL	55.3 µM	4.39 µg/mL	24.3 µM	
2,3,5-tricaffeoylaltraric acid, or 2,4,5-tricaffeoylaltraric acid [TCAA]	0.49 µg/mL	0.7 µM	0.69 µg/mL	0.99 µM	blood glucose 90 minute values compared to control group ([3]; 600 mg/kg TCAA group): obvious increase; increase in blood glucose via maltose-loading at 15 minutes ([3]; each TCAA dosage group (150, 300, 600 mg/kg × 2) vs control, p<0.01): significantly inhibited; ΔAUC of blood glucose [3, 4]: 5834 ± 484 mg·min/dL; ΔCmax of blood glucose [3, 4]: 86 ± 9 mg/dL; ΔAUC of blood glucose [3, 5]: 5456 ± 249 mg·min/dL; ΔCmax of blood glucose [3, 5]: 84 ± 5 mg/dL; ΔAUC of blood glucose ([3]; TCAA 600 mg/kg × 2, mean ± SE, n = 5): 5495 ± 300 mg·min/dL; ΔCmax of blood glucose ([3]; TCAA 600 mg/kg × 2, mean ± SE, n = 5, p < 0.05 vs control): 73 ± 3 mg/dL; amylase inhibitory activity IC50 (α-amylase): 420 µg/mL; lipid peroxide production inhibitory activity, times greater than that of (±)-catechin [1, 6]: 68 times; lipid peroxide production inhibitory activity, times greater than that of ellagic acid [1, 6]: 2.5 times; sucrase inhibitory activity IC50 (sucrase): > 1000 µg/mL; maltase inhibitory activity IC50 (maltase; TCAA isolated in Example 1): 49 µg/mL; maltase inhibitory activity IC50 (maltase; TCAA test substance of Example 4, purity 91%): 61 µg/mL; maltase inhibitory activity compared to an acarbose control (maltase; fraction of acarbose activity): 1/19

Continued, in another order:

Inhibitory Activities on Lipid Peroxidation IC50 [1]	IC50 [1]	DPPH Radical Scavenging Activities EC50 [2]	EC50 [2]	Compound	further results
1.48 µg/mL	2.87 µM	0.91 µg/mL	1.76 µM	O=C(/C=C/c1ccc(O)c(O)c1)O[C@@H]1[C@H](O)C[C@@](O)(C(=O)O)C[C@H]1OC(=O)/C=C/c1ccc(O)c(O)c1 [3,4-DCQA, 3,4-dicaffeoylquinic acid]	
2.18 µg/mL	4.23 µM	0.87 µg/mL	1.69 µM	O=C(/C=C/c1ccc(O)c(O)c1)O[C@@H]1C[C@](O)(C(=O)O)C[C@@H](OC(=O)/C=C/c2ccc(O)c(O)c2)[C@H]1O [3,5-DCQA]	
0.56 µg/mL	1.85 µM	0.51 µg/mL	1.69 µM	O=c1oc2c(O)c(O)cc3c(=O)oc4c(O)c(O)cc1c4c23 [ellagic acid]	
13.21 µg/mL	37.3 µM			O=C(/C=C/c1ccc(O)c(O)c1)O[C@@H]1C[C@](O)(C(=O)O)C[C@@H](O)[C@H]1O [chlorogenic acid]	
